Values joined by “and” are separate entries in the source; they are usually repeats but may differ in a detail not shown here. Equal values may be shown once.
What was measured:
Test in all cases: radiometric filter-binding kinase assay, Kinase HotSpot
Conditions in all cases: compound 0.5 µM; ATP 10 µM
SRPK3 (human) = SRPK3 (human) (UniProt Q9UPE1)
PTK6 (human) = PTK6 (human) (UniProt Q13882)
PRKCA (human) = PRKCA (human) (UniProt P17252)
LYN (human) = LYN (human) (UniProt P07948)
MET (human) = MET (human) (UniProt P08581)
IGF1R (human) = IGF1R (human) (UniProt P08069)
Sequence of IGF1R (human) (P08069 whole entry, looked up): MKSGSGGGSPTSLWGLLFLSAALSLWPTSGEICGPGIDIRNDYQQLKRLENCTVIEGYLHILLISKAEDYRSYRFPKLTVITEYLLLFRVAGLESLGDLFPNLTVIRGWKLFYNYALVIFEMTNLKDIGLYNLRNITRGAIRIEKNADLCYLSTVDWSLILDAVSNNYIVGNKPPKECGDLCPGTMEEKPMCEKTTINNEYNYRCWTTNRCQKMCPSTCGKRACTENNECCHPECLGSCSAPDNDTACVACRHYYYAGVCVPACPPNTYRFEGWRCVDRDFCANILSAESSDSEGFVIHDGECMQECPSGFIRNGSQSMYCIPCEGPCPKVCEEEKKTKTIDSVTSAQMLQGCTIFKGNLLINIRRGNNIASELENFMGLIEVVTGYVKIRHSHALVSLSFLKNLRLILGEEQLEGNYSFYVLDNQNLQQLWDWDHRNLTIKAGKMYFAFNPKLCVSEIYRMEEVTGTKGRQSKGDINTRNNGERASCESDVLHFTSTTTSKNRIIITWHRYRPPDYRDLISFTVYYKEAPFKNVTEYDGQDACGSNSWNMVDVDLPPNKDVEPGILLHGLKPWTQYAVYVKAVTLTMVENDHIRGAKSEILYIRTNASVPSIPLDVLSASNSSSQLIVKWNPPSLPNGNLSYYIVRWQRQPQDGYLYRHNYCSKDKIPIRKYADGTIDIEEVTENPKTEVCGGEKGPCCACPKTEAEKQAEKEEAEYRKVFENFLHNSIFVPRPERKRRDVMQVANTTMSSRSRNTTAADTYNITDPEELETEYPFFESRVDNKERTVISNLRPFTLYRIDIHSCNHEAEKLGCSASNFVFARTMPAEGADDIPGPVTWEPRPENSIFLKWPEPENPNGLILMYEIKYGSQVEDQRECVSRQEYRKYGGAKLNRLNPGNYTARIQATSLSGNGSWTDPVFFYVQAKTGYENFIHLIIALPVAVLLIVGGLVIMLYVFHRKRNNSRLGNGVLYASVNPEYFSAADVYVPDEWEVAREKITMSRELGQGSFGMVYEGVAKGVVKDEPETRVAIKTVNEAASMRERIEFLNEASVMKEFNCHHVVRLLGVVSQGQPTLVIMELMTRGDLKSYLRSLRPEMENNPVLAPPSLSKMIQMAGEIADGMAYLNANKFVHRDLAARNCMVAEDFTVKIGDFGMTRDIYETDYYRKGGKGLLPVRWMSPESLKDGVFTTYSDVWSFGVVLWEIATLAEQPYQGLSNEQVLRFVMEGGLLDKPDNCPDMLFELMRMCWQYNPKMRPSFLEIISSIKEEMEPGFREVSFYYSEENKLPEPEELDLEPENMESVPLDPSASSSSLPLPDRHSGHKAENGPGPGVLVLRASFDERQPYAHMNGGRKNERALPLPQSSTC

PAK2 (human) = PAK2 (human) (UniProt Q13177)
STK16 (human) = STK16 (human) (UniProt O75716)
CDK1 CCNA2 (human) = CDK1 CCNA2 (human) (UniProt P06493+P20248)
AKT1 (human) = AKT1 (human) (UniProt P31749)
DYRK1B (human) = DYRK1B (human) (UniProt Q9Y463)
MARK1 (human) = MARK1 (human) (UniProt Q9P0L2)
AURKA (human) = AURKA (human) (UniProt O14965)
Sequence of AURKA (human) (O14965 whole entry, looked up): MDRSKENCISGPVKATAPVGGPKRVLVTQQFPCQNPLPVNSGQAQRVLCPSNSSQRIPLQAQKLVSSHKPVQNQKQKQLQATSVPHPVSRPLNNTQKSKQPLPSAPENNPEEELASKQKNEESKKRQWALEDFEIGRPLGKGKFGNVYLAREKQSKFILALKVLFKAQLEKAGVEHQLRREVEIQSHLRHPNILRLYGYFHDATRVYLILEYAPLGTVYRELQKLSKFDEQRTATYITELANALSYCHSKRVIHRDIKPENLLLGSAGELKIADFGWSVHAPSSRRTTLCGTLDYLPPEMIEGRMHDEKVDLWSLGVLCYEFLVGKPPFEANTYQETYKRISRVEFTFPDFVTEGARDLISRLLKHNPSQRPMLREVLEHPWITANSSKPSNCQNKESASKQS

CDK3 CCNE1 (human) = CDK3 CCNE1 (human) (UniProt Q00526+P24864)
Sequence of CDK3 CCNE1 (human) (P24864 whole entry, looked up): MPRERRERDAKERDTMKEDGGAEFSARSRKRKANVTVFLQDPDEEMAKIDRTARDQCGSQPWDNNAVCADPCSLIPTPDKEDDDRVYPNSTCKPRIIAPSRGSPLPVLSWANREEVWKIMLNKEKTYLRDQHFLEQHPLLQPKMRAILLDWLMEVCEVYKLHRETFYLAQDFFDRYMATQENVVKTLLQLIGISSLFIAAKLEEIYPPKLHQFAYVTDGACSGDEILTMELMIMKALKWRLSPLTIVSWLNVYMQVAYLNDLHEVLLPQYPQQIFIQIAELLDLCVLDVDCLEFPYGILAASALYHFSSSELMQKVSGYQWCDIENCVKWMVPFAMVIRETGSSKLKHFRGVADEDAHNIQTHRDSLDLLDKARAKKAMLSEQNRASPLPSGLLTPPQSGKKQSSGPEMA
Sequence of CDK3 CCNE1 (human) (Q00526 whole entry, looked up): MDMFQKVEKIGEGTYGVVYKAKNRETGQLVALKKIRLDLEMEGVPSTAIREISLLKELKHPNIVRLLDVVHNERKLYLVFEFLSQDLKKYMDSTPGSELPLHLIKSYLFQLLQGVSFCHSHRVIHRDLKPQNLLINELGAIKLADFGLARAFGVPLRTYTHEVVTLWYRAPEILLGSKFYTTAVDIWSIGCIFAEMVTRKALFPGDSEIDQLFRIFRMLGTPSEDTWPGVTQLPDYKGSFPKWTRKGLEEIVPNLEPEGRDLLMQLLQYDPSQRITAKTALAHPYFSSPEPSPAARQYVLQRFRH

MAP3K14 (human) = MAP3K14 (human) (UniProt Q99558)
Sequence of MAP3K14 (human) (Q99558 whole entry, looked up): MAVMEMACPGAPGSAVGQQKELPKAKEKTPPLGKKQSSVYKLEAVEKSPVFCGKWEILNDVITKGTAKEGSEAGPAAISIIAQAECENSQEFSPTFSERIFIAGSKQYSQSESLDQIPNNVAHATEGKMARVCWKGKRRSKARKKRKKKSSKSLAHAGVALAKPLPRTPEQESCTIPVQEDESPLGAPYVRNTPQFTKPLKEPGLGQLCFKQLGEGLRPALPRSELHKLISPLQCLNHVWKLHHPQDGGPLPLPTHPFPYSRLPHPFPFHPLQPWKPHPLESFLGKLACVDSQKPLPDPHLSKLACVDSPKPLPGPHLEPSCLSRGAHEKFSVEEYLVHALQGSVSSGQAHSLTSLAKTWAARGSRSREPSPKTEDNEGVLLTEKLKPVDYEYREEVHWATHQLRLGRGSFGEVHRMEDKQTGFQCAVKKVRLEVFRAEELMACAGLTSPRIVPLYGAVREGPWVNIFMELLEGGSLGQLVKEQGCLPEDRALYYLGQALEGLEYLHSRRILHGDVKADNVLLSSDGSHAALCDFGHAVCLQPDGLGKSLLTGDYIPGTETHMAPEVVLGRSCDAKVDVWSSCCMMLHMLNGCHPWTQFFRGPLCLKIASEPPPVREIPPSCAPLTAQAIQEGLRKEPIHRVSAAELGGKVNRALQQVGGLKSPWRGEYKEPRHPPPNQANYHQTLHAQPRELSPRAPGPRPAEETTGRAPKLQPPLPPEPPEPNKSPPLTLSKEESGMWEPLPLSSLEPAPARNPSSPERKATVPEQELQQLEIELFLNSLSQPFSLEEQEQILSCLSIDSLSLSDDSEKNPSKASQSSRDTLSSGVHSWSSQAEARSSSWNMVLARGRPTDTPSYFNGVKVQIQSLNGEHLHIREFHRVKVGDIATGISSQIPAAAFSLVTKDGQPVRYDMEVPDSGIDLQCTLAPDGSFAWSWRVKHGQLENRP

ZAP70 (human) = ZAP70 (human) (UniProt P43403)
CAMK4 (human) = CAMK4 (human) (UniProt Q16566)
Sequence of CAMK4 (human) (Q16566 whole entry, looked up): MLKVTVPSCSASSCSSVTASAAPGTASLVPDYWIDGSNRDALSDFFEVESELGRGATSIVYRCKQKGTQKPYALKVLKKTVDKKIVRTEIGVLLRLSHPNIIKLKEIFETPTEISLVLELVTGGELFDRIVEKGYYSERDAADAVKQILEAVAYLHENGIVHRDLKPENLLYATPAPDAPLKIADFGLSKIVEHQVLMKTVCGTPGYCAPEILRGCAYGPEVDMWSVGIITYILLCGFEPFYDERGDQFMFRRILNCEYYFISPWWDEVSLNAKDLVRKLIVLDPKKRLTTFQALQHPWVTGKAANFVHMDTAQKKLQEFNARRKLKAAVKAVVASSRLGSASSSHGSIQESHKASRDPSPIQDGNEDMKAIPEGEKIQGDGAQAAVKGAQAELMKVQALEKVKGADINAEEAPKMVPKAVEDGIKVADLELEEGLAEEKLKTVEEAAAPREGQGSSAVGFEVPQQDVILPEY

RIPK2 (human) = RIPK2 (human) (UniProt O43353)
PRKCH (human) = PRKCH (human) (UniProt P24723)
CAMKK1 (human) = CAMKK1 (human) (UniProt Q8N5S9)
JAK3 JH1 JH2 (human) = JAK3 JH1 JH2 (human) (UniProt P52333)
[1] = biological target: TYK2 JH1 catalytic (human) (UniProt P29597)
BRSK2 (human) = BRSK2 (human) (UniProt Q8IWQ3)
MAPKAPK5 (human) = MAPKAPK5 (human) (UniProt Q8IW41)
PAK6 (human) = PAK6 (human) (UniProt Q9NQU5)
SYK (human) = SYK (human) (UniProt P43405)
TXK (human) = TXK (human) (UniProt P42681)
CAMKK2 (human) = CAMKK2 (human) (UniProt Q96RR4)
NEK1 (human) = NEK1 (human) (UniProt Q96PY6)
DCLK2 (human) = DCLK2 (human) (UniProt Q8N568)
MAPK9 (human) = MAPK9 (human) (UniProt P45984)
OXSR1 (human) = OXSR1 (human) (UniProt O95747)
RPS6KB1 (human) = RPS6KB1 (human) (UniProt P23443)
RPS6KA3 KD1 KD2 (human) = RPS6KA3 KD1 KD2 (human) (UniProt P51812)
PAK4 (human) = PAK4 (human) (UniProt O96013)
PDPK1 (human) = PDPK1 (human) (UniProt O15530)
ABL2 (human) = ABL2 (human) (UniProt P42684)
IKBKB (human) = IKBKB (human) (UniProt O14920)
NTRK1 (human) = NTRK1 (human) (UniProt P04629)
PRKCB2 (human) = PRKCB2 (human) (UniProt P05771)

Sequence of PTK6 (human) (Q13882 whole entry, looked up): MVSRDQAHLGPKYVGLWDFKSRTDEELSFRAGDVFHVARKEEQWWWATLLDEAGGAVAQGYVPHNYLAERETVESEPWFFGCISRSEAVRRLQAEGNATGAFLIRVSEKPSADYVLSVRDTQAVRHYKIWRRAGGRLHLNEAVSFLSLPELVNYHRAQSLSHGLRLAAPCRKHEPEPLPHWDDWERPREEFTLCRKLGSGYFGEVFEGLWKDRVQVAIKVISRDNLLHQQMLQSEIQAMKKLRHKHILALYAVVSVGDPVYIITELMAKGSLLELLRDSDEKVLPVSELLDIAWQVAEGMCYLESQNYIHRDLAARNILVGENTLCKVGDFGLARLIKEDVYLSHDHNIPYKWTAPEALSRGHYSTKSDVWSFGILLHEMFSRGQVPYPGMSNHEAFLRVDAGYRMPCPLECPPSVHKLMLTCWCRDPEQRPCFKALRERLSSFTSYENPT
Sequence of SRPK3 (human) (Q9UPE1 whole entry, looked up): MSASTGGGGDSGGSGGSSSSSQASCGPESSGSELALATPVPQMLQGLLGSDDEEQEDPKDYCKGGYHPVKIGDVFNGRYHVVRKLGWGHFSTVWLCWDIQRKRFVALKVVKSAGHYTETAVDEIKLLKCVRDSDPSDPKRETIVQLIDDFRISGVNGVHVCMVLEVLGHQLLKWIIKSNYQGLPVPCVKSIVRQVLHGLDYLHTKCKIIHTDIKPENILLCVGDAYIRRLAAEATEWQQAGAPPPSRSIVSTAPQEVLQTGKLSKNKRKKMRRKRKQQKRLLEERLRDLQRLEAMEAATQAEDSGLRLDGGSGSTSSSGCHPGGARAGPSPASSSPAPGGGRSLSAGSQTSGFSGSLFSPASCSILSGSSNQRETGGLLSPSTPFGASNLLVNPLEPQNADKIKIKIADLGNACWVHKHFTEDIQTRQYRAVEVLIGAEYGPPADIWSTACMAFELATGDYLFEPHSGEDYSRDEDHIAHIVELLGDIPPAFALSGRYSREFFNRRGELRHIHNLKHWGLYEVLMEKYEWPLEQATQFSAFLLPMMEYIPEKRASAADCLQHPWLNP

| SMILES | residual activity (SRPK3 (human)) [%] | residual activity (PTK6 (human)) [%] | residual activity (PRKCA (human)) [%] | residual activity (LYN (human)) | residual activity (MET (human)) [%] | residual activity (IGF1R (human)) [%] | residual activity (PAK2 (human)) [%] | residual activity (STK16 (human)) [%] | residual activity (CDK1 CCNA2 (human)) [%] | residual activity (AKT1 (human)) [%] | residual activity (DYRK1B (human)) [%] | residual activity (MARK1 (human)) [%] | residual activity (AURKA (human)) [%] | residual activity (CDK3 CCNE1 (human)) [%] | residual activity (MAP3K14 (human)) [%] | residual activity (ZAP70 (human)) [%] | residual activity (CAMK4 (human)) [%] | residual activity (RIPK2 (human)) [%] | residual activity (PRKCH (human)) [%] | residual activity (CAMKK1 (human)) [%] | further results |
| --- | --- | --- | --- | --- | --- | --- | --- | --- | --- | --- | --- | --- | --- | --- | --- | --- | --- | --- | --- | --- | --- |
| CC(=O)c1ccc(N2CCOCC2)cc1O | 104 | 104 | 73.4 | 106% and 98.8% | 122 | 106 | 98.8 | 110 | 99.8 | 103 | 99.9 | 96.7 | 132 | 102 | 82.6 | 99.5 | 93 | 103 | 99.3 | 124 | residual activity (JAK3 JH1 JH2 (human)): 104%; residual activity [1]: 110%; residual activity (BRSK2 (human)): 100%; residual activity (MAPKAPK5 (human)): 96.9%; residual activity (PAK6 (human)): 93.7%; residual activity (SYK (human)): 92.6%; residual activity (TXK (human)): 103%; residual activity (CAMKK2 (human)): 115%; residual activity (NEK1 (human)): 114%; residual activity (DCLK2 (human)): 101%; residual activity (MAPK9 (human)): 105%; residual activity (OXSR1 (human)): 115%; residual activity (RPS6KB1 (human)): 95.2%; residual activity (RPS6KA3 KD1 KD2 (human)): 101%; residual activity (PAK4 (human)): 103%; residual activity (PDPK1 (human)): 111%; residual activity (ABL2 (human)): 104%; residual activity (IKBKB (human)): 103%; residual activity (NTRK1 (human)): 97.2%; residual activity (PRKCB2 (human)): 97.9% |
| Cc1ccc(NC2=CC(=O)c3sc(C)nc3C2=O)cc1 | 98.2 | 89.2 | 100 | 106% and 95.4% | 99.7 | 92.2 | 104 | 91.7 | 75.9 | 83.3 | 94.6 | 89.6 | 110 | 88.5 | 98.2 | 95.4 | 98.5 | 95.2 | 89.4 | 108 | residual activity (JAK3 JH1 JH2 (human)): 97.4%; residual activity [1]: 109%; residual activity (BRSK2 (human)): 93.1%; residual activity (MAPKAPK5 (human)): 108%; residual activity (PAK6 (human)): 110%; residual activity (SYK (human)): 97.9%; residual activity (TXK (human)): 98.8%; residual activity (CAMKK2 (human)): 92.5%; residual activity (NEK1 (human)): 76.5%; residual activity (DCLK2 (human)): 95.3%; residual activity (MAPK9 (human)): 96.5%; residual activity (OXSR1 (human)): 86.6%; residual activity (RPS6KB1 (human)): 97.2%; residual activity (RPS6KA3 KD1 KD2 (human)): 104%; residual activity (PAK4 (human)): 105%; residual activity (PDPK1 (human)): 88.7%; residual activity (ABL2 (human)): 98.3%; residual activity (IKBKB (human)): 97.3%; residual activity (NTRK1 (human)): 80.6%; residual activity (PRKCB2 (human)): 93.8% |
| Cc1ccc(S(=O)(=O)/C=C/C#N)cc1 | 104 | 93.1 | 70.6 | 101% and 108% | 94.7 | 93.5 | 102 | 88.3 | 96.7 | 112 | 101 | 102 | 111 | 99.7 | 103 | 97.5 | 96.4 | 93.8 | 106 | 114 | residual activity (JAK3 JH1 JH2 (human)): 101%; residual activity [1]: 82.8%; residual activity (BRSK2 (human)): 99.4%; residual activity (MAPKAPK5 (human)): 88.9%; residual activity (PAK6 (human)): 107%; residual activity (SYK (human)): 105%; residual activity (TXK (human)): 103%; residual activity (CAMKK2 (human)): 102%; residual activity (NEK1 (human)): 92.3%; residual activity (DCLK2 (human)): 96.1%; residual activity (MAPK9 (human)): 102%; residual activity (OXSR1 (human)): 103%; residual activity (RPS6KB1 (human)): 105%; residual activity (RPS6KA3 KD1 KD2 (human)): 95.9%; residual activity (PAK4 (human)): 91.9%; residual activity (PDPK1 (human)): 102%; residual activity (ABL2 (human)): 104%; residual activity (IKBKB (human)): 110%; residual activity (NTRK1 (human)): 90.1%; residual activity (PRKCB2 (human)): 104% |
| COc1ccc(COc2ccc(Cc3cnc(N)nc3N)cc2OC)cc1 | 102 | 96.1 | 95.9 | 98.1% and 99.9% | 76.1 | 123 | 95.3 | 106 | 98.7 | 97.4 | 104 | 103 | 105 | 82.9 | 81.8 | 94.3 | 94.7 | 81.9 | 88.6 | 115 | residual activity (JAK3 JH1 JH2 (human)): 95.9%; residual activity [1]: 97.6%; residual activity (BRSK2 (human)): 96.8%; residual activity (MAPKAPK5 (human)): 87.5%; residual activity (PAK6 (human)): 94.9%; residual activity (SYK (human)): 89%; residual activity (TXK (human)): 101%; residual activity (CAMKK2 (human)): 103%; residual activity (NEK1 (human)): 95.6%; residual activity (DCLK2 (human)): 101%; residual activity (MAPK9 (human)): 106%; residual activity (OXSR1 (human)): 103%; residual activity (RPS6KB1 (human)): 89.5%; residual activity (RPS6KA3 KD1 KD2 (human)): 105%; residual activity (PAK4 (human)): 101%; residual activity (PDPK1 (human)): 89.4%; residual activity (ABL2 (human)): 107%; residual activity (IKBKB (human)): 99.9%; residual activity (NTRK1 (human)): 51.3%; residual activity (PRKCB2 (human)): 110% |
| COc1ccc2c(c[n+](C)c3c4cc5c(cc4ccc23)OCO5)c1OC | 96.1 | 94.4 | 78.9 | 95.4% and 100% | 94.7 | 93.3 | 101 | 102 | 89.7 | 97.6 | 102 | 91.4 | 107 | 91.7 | 88.1 | 101 | 99.9 | 105 | 101 | 101 | residual activity (JAK3 JH1 JH2 (human)): 101%; residual activity [1]: 108%; residual activity (BRSK2 (human)): 97%; residual activity (MAPKAPK5 (human)): 83.5%; residual activity (PAK6 (human)): 96.1%; residual activity (SYK (human)): 98.8%; residual activity (TXK (human)): 100%; residual activity (CAMKK2 (human)): 98.2%; residual activity (NEK1 (human)): 91.3%; residual activity (DCLK2 (human)): 96%; residual activity (MAPK9 (human)): 102%; residual activity (OXSR1 (human)): 94.8%; residual activity (RPS6KB1 (human)): 99.8%; residual activity (RPS6KA3 KD1 KD2 (human)): 94.6%; residual activity (PAK4 (human)): 99.5%; residual activity (PDPK1 (human)): 98.2%; residual activity (ABL2 (human)): 96.7%; residual activity (IKBKB (human)): 103%; residual activity (NTRK1 (human)): 89.8%; residual activity (PRKCB2 (human)): 100% |

From the kinase profiling compilation of Christmann-Franck et al. (2016)
